In US11578310B2, “Method for producing CD4/CD8 double-positive T cells” (Kyoto University, priority 2016, dated 2023):

Tested on: hematopoietic progenitor cells induced from iPS cells or ES cells
Assay: Induction of CD4/CD8 double-positive T cells from hematopoietic progenitor cells induced from pluripotent stem cells (flow cytometry)
Type: cell-based, human
Conditions: TKT3v 1-7 line; medium containing SB203580 alone or SDF-1α alone vs neither; FIG. 5
Method: On an ultralow-adhesion-treated 6-well plate (CORNING: #3471). TkT3V1-7. Ffl-01, Ffl-14, or KhES-3 was plated at 3×10^5 to 6×10^5 cells/well (Day 0), and the cells were cultured under hypoxic conditions (5% O2) for five days in EB medium (StemPro34 supplemented with 10 μg/ml human insulin, 5.5 μg/ml human transferrin, 5 ng/ml sodium selenite, 2 mM L-glutamine, […] α-monothioglycerol, and 50 μg/ml ascorbic acid) supplemented with 10 ng/ml BMP4, 5 ng/ml bFGF, 15 ng/ml VEGF, and 2 μM SB431542 (Day 5).
Subsequently, 50 ng/ml SCF, 30 ng/ml TPO, and 10 ng/ml Flt3L were added, and additional culture was performed for 5 to 9 days (up to Day 14).

Substance	induction of CD4/CD8 double-positive T cells, each agent used alone
SDF-1α	can be produced even when each of these was used alone
4-(4-fluorophenyl)-2-(4-methylsulfonylphenyl)-5-(4-pyridyl)-1H-imidazole [SB203580]	can be produced even when each of these was used alone
